# Literature values, collected in PMC2192333 (The Journal of Experimental Medicine, 1996).
# Key:
# C3bi = conditions: mutation in CD11b
substance,measurement,setting,value
Asp-140GlySer to AlaGlyAla: mutation of the closely related integrin CD11b,binding to C3bi,C3bi,abohshed binding to C3bi
CD11d/CD18: recently described fourth member of the CD18 integrins,binding to ICAM-3,ICAM-3,high affinity
murine LFA-1: murine leukocyte integrin LFA-1,binding of murine LFA-1 to human ICAM-1,human ICAM-1,does not bind human ICAM-1
